The values that follow come from patent publication US7312249B2, “Vitamin D analogues” (Galderma Research & Development, priority 2002, dated 2007).

Holding throughout (format): cell-based
The test system of experiment [1] is normal human keratinocytes. Nature of the experiment: Activity on the proliferation of human keratinocytes (BrdU incorporation). As to conditions: Keratinocyte, 120 h, 5 days of culture, read-out: IC50 - proliferation of the KHNs. As for the experimental part: The biological properties which are similar to vitamin D may also be measured by the capacity of the product to inhibit the proliferation of normal human keratinocytes (NHK in culture). The product is added to NHKs cultured under conditions promoting the proliferative state. The product is left in contact with the cells for 5 days. The number of proliferative cells is measured by incorporation of bromodeoxyuridine (BRdU) into DNA. The protocol for this test and the results obtained with the compounds according to the invention are described in Example 8 of the present application.
The method used is the following: normal human keratinocytes are inoculated at low density into a 24-well plate. After 4 hours, the compounds to be tested are added to the culture medium. After 5 days of culture, the proliferation of the kerátinocytes is determined by incorporating 5-bromo-2′-deoxyuridine (BrdU) into the DNA. The quantity of BrdU incorporated is then measured using the ELISA test (Enzyme Linked Immuno Sorbent Assay, marketed by Roche Molecular Biochemicals).

The test system of another experiment is HL60 cells. Nature of the experiment: Activity on the differentiation of HL60 cells (NBT reduction). Conditions: Homo sapiens, HL-60, 96 h, 4 days of culture, NBT-positive cells counted. The text has this:
The biological properties analogous to vitamin D may also be measured by the capacity of the product to induce differentiation of promyelocytic leukaemia cells HL60. The protocol and the results obtained with the compounds according to the invention are described in Example 6 of the present application.
Calcitriol induces the differentiation of promyelocytic leukaemia cells (HL60) into monocytes/macrophages. This differentiation-inducing effect is a well characterized marker for cellular vitamin D. One of the most important anti-microbial products of macrophages is hydrogen peroxide, which may be analyzed experimentally by the reduction of NBT (Nitroblue Tetrazolium).
The method used is the following: the HL60 cells are inoculated into 6-well plates and then treated immediately with a test compound. After 4 days of culture, the cells are incubated with phorbol TPA ester and NBT for a short period and the differentiated cells, that is to say which are positive to NBT are counted.

A further experiment concerns the target T1, human VDR receptor (Homo sapiens, UniProt P11473).
T1 construct: expressed in transfected cells; host or cells: HeLa
T1 sequence (P11473 1-427): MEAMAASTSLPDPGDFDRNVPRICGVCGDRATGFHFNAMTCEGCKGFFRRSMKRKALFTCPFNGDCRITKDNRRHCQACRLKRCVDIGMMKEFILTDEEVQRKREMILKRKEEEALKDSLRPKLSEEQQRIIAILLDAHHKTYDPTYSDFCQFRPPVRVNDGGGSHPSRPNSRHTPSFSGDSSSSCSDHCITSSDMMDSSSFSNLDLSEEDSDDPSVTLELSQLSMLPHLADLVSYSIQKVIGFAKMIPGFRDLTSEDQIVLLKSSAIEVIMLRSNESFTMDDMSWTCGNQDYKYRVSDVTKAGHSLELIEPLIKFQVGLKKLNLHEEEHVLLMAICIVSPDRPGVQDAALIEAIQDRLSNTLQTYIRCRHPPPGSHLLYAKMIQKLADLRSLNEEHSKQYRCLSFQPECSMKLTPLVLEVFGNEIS
Description: VDR agonist activity, co-transfection of HeLa cells with human VDR expression vector and reporter plasmid p240Hase-CAT. Conditions: CAT reporter (rat 24-hydroxylase promoter), 18 hours of treatment. As for the experimental part: By way of example, the VDR agonist activity may be tested on the HeLa cell line, by co-transfecting a human VDR receptor expression vector and the reporter plasmid p240Hase-CAT. The agonist activity may also be characterized in this co-transfection system by the determination of the dose necessary to reach 50% of the maximum activity of the product (AC50).
18 hours after co-transfection, the compound to be tested is added to the medium. After 18 hours of treatment, the assay of the CAT activity of the cellular lysates is carried out by an ELISA test (Enzyme Linked Immuno Sorbent Assay, marketed by Roche Molecular Biochemicals). The agonist activity may be characterized in this co-transfection system by determining the dose required to reach 50% of the maximum activity of the compound tested (AC50).

Bounds are passed on as bounds.

For the molecule `CCc1cc(CCCc2ccc(CO)c(CO)c2)ccc1OCC(O)C(C)(C)C` (stereo not drawn) [Compound of Example 1, 1-{4-[3-(3,4-Bis-hydroxymethyl-phenyl)-propyl]-2-ethyl-phenoxy}-3,3-dimethyl-butan-2-ol], the IC50 in experiment [1] is 0.15 µM. Moreover, the AC50 with HL60 cells stood at 0.312 µM; at human VDR receptor it was 0.04 µM.

Regarding `C=C1/C(=C\C=C2/CCC[C@]3(C)[C@@H]([C@H](C)CCCC(C)(C)O)CC[C@@H]23)C[C@@H](O)C[C@@H]1O` [Calcitriol, 1,25-dihydroxyvitamin D3, reference compound], half-maximal activity in the experiment with HL60 cells (AC50) was put at 0.0107 µM. This lies in the double-digit nanomolar range.

In turn, `CCc1cc(CCCc2ccc(CO)c(CO)c2)ccc1OCC(O)(CC)CC` [Compound of Example 3, (4-{3-(3-Ethyl-4-(2-ethyl-2-hydroxy-butoxy)-phenyl]-propyl}-2-hydroxymethyl-phenyl)-methanol] came in with an AC50 at human VDR receptor of 1.21 µM.

With `Cc1cc(CCCc2ccc(CO)c(CO)c2)ccc1OCC(O)C(C)(C)C` (stereo not drawn) [Compound of Example 2, 1-{4-[3-(3,4-Bis-hydroxymethyl-phenyl)-propyl]-2-methyl-phenoxy}-3,3-dimethyl-butan-2-ol], in experiment [1], the IC50 was determined as 0.14 µM. Moreover, the values for the AC50 in the experiment on HL60 cells and on human VDR receptor were 2.5 µM and 0.172 µM, respectively.

As to `CCC(O)(CC)COc1ccc(CCCc2ccc(CO)c(CO)c2)cc1C` [Compound of Example 4, (4-{3-(4-(2-Ethyl-2-hydroxy-butoxy)-3-methyl-phenyl]-propyl)-2-hydroxymethyl-phenyl)-methanol], at human VDR receptor, the AC50 was greater than 3 µM.
